Assay results as given in patent US20250177473A1, “PEPTIDE REGULATORS OF METABOLISM” (Metabico, Inc., priority 2022, published 2025).

Legend:
[1] = tested on: TNF-α; assay: TNF-α mRNA expression in LPS-induced primary mouse fibroblasts; format: cell-based; settings: LPS 0.5 μg/mL 24 h; DLSKEPSISRE 0.05 mg/mL or metformin 1 mM
Method: (§1) The study was carried out in primary mouse fibroblasts. Isolation of fibroblasts was carried out with techniques described earlier (See Example 1). Fibroblasts were cultured for 3 days. The following stressors were applied separately: bacterial lipopolysaccharides (LPS), high glucose in the incubation medium, and serum-free incubation medium.
(§2) LPS is a major outer surface membrane component that induces an inflammatory response in cells.
(§3) Isolation of mRNA, synthesis of the first strand of cDNA, and RT-PCR were performed with techniques described earlier (See Example 1). Expression levels of IRS2, TNF-α, IL-6, and GSK3p (WNT-pathway) were analyzed.
(§4) The study was carried out in primary mouse fibroblasts. Isolation of fibroblasts was carried out with techniques described earlier (See Example 1). Incubation of fibroblasts with 100 μM individual peptides and 0.5 μg/mL LPS was carried out for 24 hours. Each treatment group was represented in two biological replicates.
(§5) Isolation of mRNA, synthesis of the first strand of cDNA, and RT-PCR were performed with techniques described earlier (See Example 1). Expression levels of RPL27, TNF-α, IL-6, and IRS2 genes were analyzed.

[2] = tested on: IL-6; assay: IL-6 mRNA expression in LPS-induced primary mouse fibroblasts; format: cell-based; settings: LPS 0.5 μg/mL 24 h; DLSKEPSISRE 0.05 mg/mL or metformin 1 mM
Method: as §1, §2, §3, §4, §5

[3] = tested on: C57BL/6 mice on a high-fat diet; assay: Chronic 28-day administration in HFD mice: bodyweight, water and feed consumption; format: in vivo, mouse; settings: for Weekly food consumption / Weekly water consumption: Metformin 250 mg/kg p.o. daily
Method: A standard laboratory rodent pellet SNIFF RI/M-H V1534-30 (58% carbohydrates, 9% fat, 33% protein, 306 kcal/100 g) was given ad libitum to the control animals. For HFD groups, the high-fat feed was used. For 1 kg of feed, 610 g of ground SNIFF feed and 360 g of melted pork lard were taken, water (˜250 ml, 60-70° C.), 10 g of sodium chloride, 30 g of sodium glutamate were added. The mixture was brewed to a dough consistency, and food granules were formed. Then the granules were dried at 60-70° C. for 10-12 hours. The finished food for consumption was transferred to the animal-keeping area. The prepared food was stored at 4° C. for no more than 7 days. The approximate energy value of the HFD feed was 516 kcal/100 g (45% fat, 35% carbohydrates, 20% protein).
The metabolic syndrome was modeled by keeping animals on a HFD for 16 weeks. The control group was kept on a standard diet (STD) during this period. Animals had free access to feed and water located in the cage lid.
(§6) Groups of 10 animals were formed from the existing groups from Stage 2, with similar mean body weight (Table 6). The animals' bodyweight was monitored three times a week, water, and feed consumption—weekly. After the last treatment, the animals were euthanized for necropsy and their blood collected. The internal organs were examined for the presence of macro damage and weighed. The adipose tissue surrounding the epididymis was evaluated as a marker of obesity in animals. For histological examination, samples of adipose tissue and liver tissue were fixed in 10% formalin solution for further histological analysis.
The administration volume was 10 ml/kg for drugs administered i.p., 6 μl/animal for i.n. administration and 5 ml/kg for drugs administered p.o.
The animals were weighed weekly on weeks 1-16 of the experiment (1-120 days of the study), during the administration of the tested substances (121-148 days)—three times a week. The bodyweight of a hungry animal immediately before necropsy was taken to calculate the percentage of organ weight to body weight.
Each animal's food and water consumption was evaluated weekly by weighing the grid with food or a bottle of water before and after 24 hours.

[4] = tested on: C57BL/6 mice on a high-fat diet; assay: Blood serum glucose, HOMA-IR and TNF-α after chronic administration in HFD mice; format: in vivo, mouse; settings: metformin 250 mg/kg p.o.
Method: as §6
At the end of the study, the animals were euthanized. […]
Blood serum was analyzed for glucose concentration using the Randox GB reagent kit on an automatic biochemical analyzer Sapphire-400 (Tokyo Boeki LTD, Japan), following the manufacturer's instructions.
Insulin concentration in blood serum samples was measured by enzyme immunoassay using a standard commercial kit, following the manufacturer's instructions. […] Based on the obtained data on the concentration of insulin and glucose measured in animals before necropsy, the derived parameter of insulin resistance HOMA-IR was calculated using the formula: […]
The concentration of proinflammatory cytokine TNFa and IL1 was measured in blood serum samples by ELISA using standard commercial kits, following the manufacturer's instructions. […]

[5] = tested on: C57BL/6 mice on a high-fat diet; assay: Visceral fat weight and adipocyte histology after chronic administration in HFD mice; format: in vivo, mouse; settings: four weeks
Method: as §6
After necropsy, the following internal organs were weighed: adrenal glands, kidneys, liver, pancreas, heart, spleen, and testicles.
During necropsy, the body's external state, internal surfaces, the cranial cavity, chest, abdominal and pelvic cavities with organs and tissues located in them, the neck with organs and tissues, the skeleton, and the musculoskeletal system were examined. The organs and tissues were fixed in 10% formalin. […]
Microscopic analysis was performed using a DMLA Leica transmitted light microscope (Germany), a Photometrics Cool SNAP cf video camera (USA), and Mekos software (Russia). […] One hundred adipocytes were measured on sections of the visceral fat samples in 15-20 random fields of view.

[6] = tested on: C57BL/6 mice on a high-fat diet; assay: Tolerability observations in HFD mice study; format: in vivo, mouse; settings: metformin 250 mg/kg p.o.
Method: as §6
During necropsy, the body's external state, internal surfaces, the cranial cavity, chest, abdominal and pelvic cavities with organs and tissues located in them, the neck with organs and tissues, the skeleton, and the musculoskeletal system were examined. The organs and tissues were fixed in 10% formalin. Liver and adipose tissue samples were weighed and stored in 10% formalin for subsequent histological analysis.

## CN(C)C(=N)N=C(N)N [Metformin]
[1]
  LPS-induced expression of TNF-α: similarly
[2]
  LPS-induced expression of IL-6: similarly
[3]; Metformin 250 mg/kg p.o. daily from day 122, day 122
  Bodyweight during the period the test substance administration: 34.3 ± 0.7 grams
[3]; Metformin 250 mg/kg p.o. daily from day 122, day 124
  Bodyweight during the period the test substance administration: 33.9 ± 0.7 grams
[3]; Metformin 250 mg/kg p.o. daily from day 122, day 126
  Bodyweight during the period the test substance administration: 33.4 ± 0.8 grams
[3]; Metformin 250 mg/kg p.o. daily from day 122, day 129
  Bodyweight during the period the test substance administration: 32.9 ± 0.7 grams
[3]; Metformin 250 mg/kg p.o. daily from day 122, day 131
  Bodyweight during the period the test substance administration: 33.1 ± 0.7 grams
[3]; Metformin 250 mg/kg p.o. daily from day 122, day 133
  Bodyweight during the period the test substance administration: 33.1 ± 0.8 grams
[3]; Metformin 250 mg/kg p.o. daily from day 122, day 136
  Bodyweight during the period the test substance administration: 32.4 ± 1.1 grams
[3]; Metformin 250 mg/kg p.o. daily from day 122, day 138
  Bodyweight during the period the test substance administration: 32.2 ± 1.1 grams
[3]; Metformin 250 mg/kg p.o. daily from day 122, day 141
  Bodyweight during the period the test substance administration: 32.9 ± 0.9 grams
[3]; Metformin 250 mg/kg p.o. daily from day 122, day 144
  Bodyweight during the period the test substance administration: 33.2 ± 1.0 grams
[3]; Metformin 250 mg/kg p.o. daily from day 122, day 147
  Bodyweight during the period the test substance administration: 33.5 ± 1.0 grams
[3]; Week 1
  Weekly food consumption: 458.4 ± 55.4 kcal/kg/day
  Weekly water consumption: 0.1095 ± 0.0109 mL/min/kg
[3]; Week 2
  Weekly food consumption: 758.4 ± 51.4 kcal/kg/day
  Weekly water consumption: 0.1199 ± 0.00944 mL/min/kg
[3]; Week 3
  Weekly food consumption: 567.6 ± 21.3 kcal/kg/day
  Weekly water consumption: 0.1505 ± 0.0169 mL/min/kg
[3]; Week 4
  Weekly food consumption: 709.4 ± 22.7 kcal/kg/day
  Weekly water consumption: 0.182 ± 0.0183 mL/min/kg
[3]; Metformin p.o., chronic 4-week
  decrease in weight compared to values before substance administration: 7.6%
[3]; day 112, baseline, group 5 Metformin p.o.
  Animal body weight before the administration of the tested substances: 36.94 ± 0.954 grams
[3]; metformin chronic administration, compared with EPSI i.n.
  loss of excess body weight (normalized to HFD control): comparable
[4]; 4 weeks, EPSI 5 mg/kg i.p. and i.n.
  glucose concentration in the blood vs HFD control group: decrease
[4]; four weeks, EPSI 5 mg/kg i.n.
  TNF-α concentration in blood serum vs HFD control: reduced
[5]; Metformin 250 mg/kg p.o.
  decrease in average linear size of visceral fat adipocytes compared to HFD control: 31%
[5]; EPSI 5 mg/kg i.p. and i.n., metformin 250 mg/kg p.o., vs HFD control
  visceral fat (adipose tissue surrounding the epididymis) weight: statistically significant decrease
[6]
  death of animals after administration: 2 animals
  deviations in the state of health observed after the first injection: hunching, tremor, weight loss
